Values of other authors, collected in US9851354B2, “Methods of treating fragile X syndrome and related disorders” (Alcobra Ltd., priority 2013, dated 2017).

Conditions: cited from earlier work
[1] = randomized placebo-controlled trial in autistic children (McCracken 2002)

## Cc1nc2n(c(=O)c1CCN1CCC(c3noc4cc(F)ccc34)CC1)CCCC2 [risperidone]
Autistic children
  social isolation and communication: not improved
[1]
  adverse events: weight gain, increased appetite, fatigue, drowsiness, dizziness, and drooling
  irritability subscale of the Aberrant Behavior Checklist and Clinical Global Impressions-Improvement: significant improvement
Use in autistic children
  adverse side effects associated with use: extrapyramidal symptoms and dyskinesias
